molecular target: T1, Cholecystokinin receptor (Homo sapiens, UniProt P32239+P32238); assay: Ability to stimulate intracellular calcium response was determined using CCK receptor-bearing chinese hamster ovary cell line; type: functional, cell-based, Cricetulus griseus
T1 sequence (P32239 whole entry): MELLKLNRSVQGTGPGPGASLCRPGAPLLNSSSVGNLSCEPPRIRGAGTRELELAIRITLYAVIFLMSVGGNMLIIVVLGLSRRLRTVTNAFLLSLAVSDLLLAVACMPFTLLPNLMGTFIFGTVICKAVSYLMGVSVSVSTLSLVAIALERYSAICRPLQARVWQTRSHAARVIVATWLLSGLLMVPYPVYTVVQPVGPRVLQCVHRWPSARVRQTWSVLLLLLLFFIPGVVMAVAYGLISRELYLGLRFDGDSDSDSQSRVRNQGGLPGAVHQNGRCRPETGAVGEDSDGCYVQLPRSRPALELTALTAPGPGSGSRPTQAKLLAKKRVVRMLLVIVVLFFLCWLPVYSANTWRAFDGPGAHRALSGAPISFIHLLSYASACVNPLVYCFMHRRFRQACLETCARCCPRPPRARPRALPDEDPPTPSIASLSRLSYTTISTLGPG
T1 sequence (P32238 whole entry): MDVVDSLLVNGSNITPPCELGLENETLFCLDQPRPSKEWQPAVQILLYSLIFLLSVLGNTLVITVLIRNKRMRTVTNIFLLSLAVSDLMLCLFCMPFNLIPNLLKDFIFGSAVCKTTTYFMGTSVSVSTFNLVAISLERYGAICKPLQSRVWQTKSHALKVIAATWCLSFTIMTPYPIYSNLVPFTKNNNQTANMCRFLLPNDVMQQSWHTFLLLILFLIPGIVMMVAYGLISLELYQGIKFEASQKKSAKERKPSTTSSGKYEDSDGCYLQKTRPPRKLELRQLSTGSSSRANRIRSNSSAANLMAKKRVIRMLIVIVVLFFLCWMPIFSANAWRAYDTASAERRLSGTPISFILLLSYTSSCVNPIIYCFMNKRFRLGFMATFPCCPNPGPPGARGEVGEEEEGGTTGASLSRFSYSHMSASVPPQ

EC50	Structure (SMILES)
28 nM	CCCC[C@H](NC(=O)[C@H](Cc1c[nH]c2ccccc12)NC(=O)[C@H](Cc1ccc(C(=O)c2ccccc2)cc1)NC(=O)[C@H](CCCC)NC(=O)[C@H](Cc1ccc(OS(=O)(=O)O)cc1)NC(=O)[C@H](CC(=O)O)NC(=O)CNC(=O)[C@H](N)Cc1ccc(O)cc1)C(=O)N[C@@H](CC(=O)O)C(=O)N[C@@H](Cc1ccccc1)C(N)=O
150 nM	CCCC[C@H](NC(=O)[C@H](Cc1c[nH]c2ccccc12)NC(=O)[C@H](Cc1ccc(C(=O)c2ccccc2)cc1)NC(=O)[C@H](CCCC)NC(=O)[C@H](Cc1ccc(OS(=O)(=O)O)cc1)NC(=O)[C@H](CC(=O)O)NC(=O)CNC(=O)[C@H](N)Cc1ccc(O)cc1)C(=O)N[C@@H](CC(=O)O)C(=O)N[C@@H](Cc1ccc(C(=O)c2ccccc2)cc1)C(N)=O
280 nM	CCCC[C@H](NC(=O)[C@H](Cc1ccc(OS(=O)(=O)O)cc1)NC(=O)[C@H](CC(=O)O)NC(=O)CNC(=O)[C@H](N)Cc1ccc(O)cc1)C(=O)NCC(=O)N[C@@H](Cc1c[nH]c2ccccc12)C(=O)N[C@@H](CCCC)C(=O)N[C@@H](CC(=O)O)C(=O)N[C@@H](Cc1ccc(C(=O)c2ccccc2)cc1)C(N)=O
